Source: article PMC3967745 (Journal of medicinal chemistry, 2012)

Assays:
human CB2 receptor [1] = target: T1, human CB2 receptor (Homo sapiens, UniProt P34972); experiment: cell-based LANCE cAMP assay in CHO cells stably expressing CB2
[2] = tested on: normal human mononuclear cells (PBMC); experiment: cytotoxicity assay on human mononuclear cells; format: cell-based; settings: 72 h, PBMC from healthy donors
human CB2 receptor [3] = target: T1, human CB2 receptor; experiment: [3H]CP-55,940 radioligand competition binding assay, CB2; settings: calculated as Ki(CB1)/Ki(CB2) ratio

T1 sequence (P34972 whole entry): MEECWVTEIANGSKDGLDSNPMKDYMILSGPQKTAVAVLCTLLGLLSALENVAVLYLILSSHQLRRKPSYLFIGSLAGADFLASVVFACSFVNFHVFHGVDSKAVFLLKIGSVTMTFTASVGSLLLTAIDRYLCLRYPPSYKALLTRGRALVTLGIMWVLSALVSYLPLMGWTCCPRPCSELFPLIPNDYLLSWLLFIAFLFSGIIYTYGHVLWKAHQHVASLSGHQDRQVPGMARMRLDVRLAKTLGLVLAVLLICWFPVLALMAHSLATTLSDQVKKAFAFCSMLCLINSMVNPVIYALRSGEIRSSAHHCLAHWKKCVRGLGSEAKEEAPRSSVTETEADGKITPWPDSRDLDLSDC

CC(C)c1ccc(C(NC(=O)Cc2ccccc2)NC(=O)Cc2ccccc2)cc1 [Compound 18, N,N′-((4-Isopropylphenyl)methylene)bis(2-phenylacetamide)]
functional activity at CB2 (human CB2 receptor [1]): CB2 inverse agonists

CCCCCC(=O)NC(NC(=O)CCCCC)c1ccc(N(CC)CC)cc1 [Compound 59, N,N′-((4-(Diethylamino)phenyl)methylene)dihexanamide]
functional activity at CB2 (human CB2 receptor [1]): CB2 inverse agonists

CN(C)c1ccc(C(NC(=O)Cc2ccccc2)NC(=O)Cc2ccccc2)cc1 [Compound 9, N,N′-((4-(Dimethylamino)phenyl)methylene)bis(2-phenylacetamide)]
functional activity at CB2 (human CB2 receptor [1]): inverse agonists

O=C(Cc1ccccc1)NC(NC(=O)Cc1ccccc1)c1ccc(N2CCCC2)cc1 [Compound 30, N,N′-((4-(Pyrrolidin-1-yl)phenyl)methylene)bis(2-phenylaceta-mide)]
functional activity at CB2 (human CB2 receptor [1]): CB2 inverse agonists

CCN(CC)c1ccc(C(NC(=O)Cc2ccccc2)NC(=O)Cc2ccccc2)cc1 [Compound 26, N,N′-((4-(Diethylamino)phenyl)methylene)bis(2-phenylaceta-mide)]
cytotoxic effects ([2]; 1 µM): did not show any cytotoxic effects
effects on cell viability ([2]; 10 µM): only slight effects on cell viability
functional activity at CB2 (human CB2 receptor [1]): CB2 inverse agonists

O=C(Cc1ccc(Cl)cc1)NC(NC(=O)Cc1ccc(Cl)cc1)c1ccc(C(F)(F)F)cc1 [Compound 39, N,N′-((4-(Trifluoromethyl)phenyl)methylene)bis(2-(4-chlorophenyl)acetamide)]
SI: selectivity index for CB2 (human CB2 receptor [3]): >198

CCCN(CCC)c1ccc(C(NC(=O)Cc2ccccc2)NC(=O)Cc2ccccc2)cc1 [Compound 27, N,N′-((4-(Dipropylamino)phenyl)methylene)bis(2-phenylaceta-mide)]
functional activity at CB2 (human CB2 receptor [1]): CB2 inverse agonists
